Source: patent publication US10189862B2, “Phenothiazine-pyridine compounds and uses thereof” (The Chinese University of Hong Kong, priority 2016, dated 2019)
Read-outs that look alike come from different tables or passages of the source.

Tests used:
[1] = UV-Visible and fluorescence spectrometry; type: physicochemical; settings: for λmax(nm)in EtOH: UV-Vis absorption maximum in EtOH; for Log ε: UV-Vis in EtOH; for λEm (nm): fluorescence emission, excited at 610 nm
Procedure: (§1) All of the new prepared phenothiazine-pyridine compounds are deep blue solid, the basic physiochemical properties are measured by UV-Visible and fluorescence spectrometry. […] The maximum absorption is about 650 nm in ethanol, and they are varied based on the compound structure. The fluorescence emission is about 680 nm when excited at 610 nm. All of these compounds have relatively high quantum yield, they are promising diagnostic and imaging agents. The lipophilicity is determined by the partition coefficient (log P), which can be obtained by measuring the UV-Vis absorption of the compound in phosphate buffer saline (PBS) before and after the partition equilibrium between n-octanol and PBS solution, and then calculated following the equation of: Log p=Log [(Abefore/Aafter)−1]. Wherein Abefore and Aafter are the absorption values in PBS solution before and after partition.

[2] = Partition coefficient (log P) between n-octanol and PBS by UV-Vis absorption; type: physicochemical
Procedure: as §1

[3] = tested on: normal fibroblast WI38 cells; assay: Dark toxicity, MTT assay; type: cell-based; settings: Homo sapiens, read-out: IC50 dark toxicity
Procedure: (§2) Cell lines and culture conditions: A549, HT29, MCF-7, MDA-MB-231 cell lines were maintained in RPMI1640 supplemented with fetal bovine serum (10%) and penicillin-streptomycin solution (1%), and WI38 cells were maintained in DMEM supplemented with fetal bovine serum (10%) and penicillin-streptomycin solution (1%). Approximately 1×10^4 (for A549, HT29, MCF-7, MDA-MB-231) or 1.5×10^4 (for WI38) cells per well were seeded in 96-well plate and incubated overnight light at 37° C. in a humidified atmosphere with 5% CO2.
(§3) Dark toxicity: Cells were incubated with different concentrations of photosensitive drug for 24 h in dark, and the cell viabilities were determined by MTT assay
The IC50 values (50% inhibitory concentration) of the prepared phenothiazine-pyridine compounds 8, 14, 15, 16, 17, 18, 19, 20, 21, 22, 23, and 24 to normal fibroblast cell line WI38 were measured by MTT assay.

A549 cell line [4] = assay: Photocytotoxicity (PDT), MTT assay; type: cell-based; settings: Homo sapiens, read-out: IC50 PDT
Procedure: as §2
(§4) Photocytotoxicity: Cells were incubated with different concentrations of photosensitive drug for 1 h in the dark, then the medium in the well was sucked by a syringe, and washed by PBS. Then a solution of new medium was added, and illuminated by light. After irradiation, the cells were incubated under dark at 37° C. for another 24 h, and the cell viabilities were determined by MTT assay.

HT29 cell line [5] = assay: Photocytotoxicity (PDT), MTT assay; type: cell-based; settings: Homo sapiens, HT-29, light or radiation study, read-out: IC50 PDT
Procedure: as §2, §4

MCF7 cell line [6] = assay: Photocytotoxicity (PDT), MTT assay; type: cell-based; settings: Homo sapiens, read-out: IC50 PDT
Procedure: as §2, §4

A549 cell line [7] = assay: Dark toxicity, MTT assay; type: cell-based; settings: Homo sapiens, read-out: IC50 DK
Procedure: as §2, §3

HT29 cell line [8] = assay: Dark toxicity, MTT assay; type: cell-based; settings: Homo sapiens, read-out: IC50 DK
Procedure: as §2, §3

MCF7 cell line [9] = assay: Dark toxicity, MTT assay; type: cell-based; settings: Homo sapiens, read-out: IC50 DK
Procedure: as §2, §3

S. aureus [10] = assay: Dark toxicity of photosensitizers on bacteria, CFU count; type: cell-based, Staphylococcus aureus; settings: absence of light, 6 h
Procedure: (§5) Bacterial growth and culture: Gram-positive S. aureus or Gram-negative E. coli were grown on trypticase soy agar (TSA) for 24 h, then a colony was transferred into tryptica soy broth (TSB) and grown at 37° C. overnight at a 200 rpm speeds of shaking-up using a shaker incubator. The nutrient medium was centrifuged for 5 min at 8000 rpm and diluted by sterile 0.85% saline (pH 7.5) to concentrations of 10^8 CFU/ml, which was used for further incubation with photosensitizers in the following experiments.
(§6) Dark toxicities of the photosensitizers on bacteria: Bacterial suspensions were incubated with photosensitizers at various concentrations at 37° C. in the dark for 6 h. After that, 100 uL of cell suspension were spread on the TSA in 10-fold serial dilutions. Colony forming unit (CFU) was counted after incubation for 24 h at 37° C.

E. coli [11] = assay: as above; type: cell-based, Escherichia coli; settings: absence of light, 6 h
Procedure: as §5, §6

MDA-MB-231 cells = assay: Light dosage dependent photocytotoxicity, 635 Laser; type: cell-based; settings: MDA-MB-231, 635 Laser
Procedure: as §2, §4
[…] After incubation for a further 24 h, 3-(4,5-Dimethylthiazol-2-yl)-2,5-diphenyltetrazolium bromide (MTT) were added and the cells were incubated for another 4 h. The medium were sucked by syringe, and dimethyl sulfoxide (DMSO) was added to fully dissolve the crystals, the optical density (OD) values were measured with a microplate reader, and the data were analyzed by GraphPad Prism 6.

S. aureus [12] = assay: Photodynamic inactivation of bacteria, CFU count; type: cell-based, Staphylococcus aureus
Procedure: as §5
(§7) Photodynamic inactivation of bacteria: Bacterial suspensions (2×10^8 CFU/ml) were co-incubated with different concentrations of the photosensitizer for 10 min at 37° C., and then centrifuged, washed once with normal saline and resuspended in PBS saline. Aliquots of this suspension were placed into 24-well flat bottom plate and illuminated with laser light. After illumination, 100 uL of cell suspension were spread on the TSA in 10-fold serial dilutions and colony forming unit (CFU) was counted after incubation for 24 h at 37° C.

E. coli [13] = assay: Photodynamic inactivation of bacteria, CFU count; type: cell-based, Escherichia coli
Procedure: as §5, §7

SMILES | λmax(nm)in EtOH [1] [nm] | Log ε [1] | λEm (nm) [1] [nm] | logP [2] | IC50 ([3]; WI-38, 24 h) [µM] | IC50 (A549 cell line [4]; A549, light or radiation study) [µM] | IC50 (HT29 cell line [5]) [µM] | IC50 (MCF7 cell line [6]; MCF7, light or radiation study) [µM] | IC50 (A549 cell line [7]; A549, 24 h) [µM] | IC50 (HT29 cell line [8]; HT-29, 24 h) [µM] | IC50 (MCF7 cell line [9]; MCF7, 24 h) [µM] | dark toxicity (S. aureus [10]) | dark toxicity (E. coli [11]) | further results
CCN(CC)c1ccc2nc3c(cc(N)c4nc(C)ccc43)[s+]c2c1 [Compound 8, 5-amino-9-(diethylamino)-3-methylpyrido[3,2-a]phenothiazin-7-ium chloride] | 658 | 4.93 | 680 | 0.97 | > 10 | 1.8 | 0.21 | 0.5 | 6.5 | 4.6 | 1.1 | essentially non-toxic | essentially non-toxic | –
CCCNc1c(I)c2[s+]c3cc(N(CC)CC)ccc3nc2c2ccc(C)nc12 [Compound 23, 9-(diethylamino)-6-iodo-3-methyl-5-(propylamino)pyrido[3,2-a]phenothiazin-7-ium chloride] | 633 | 4.87 | 666 | 1.48 | 5.2 | 0.68 | 0.071 | 0.12 | 3.3 | 2 | 0.9 | essentially non-toxic | essentially non-toxic | –
CCCNc1cc2[s+]c3cc(N(CC)CC)ccc3nc2c2ccc(C)nc12.[Cl-] [Compound 14, 9-(diethylamino)-3-methyl-5-(propylamino)pyrido[3,2-a]phenothiazin-7-ium chloride] | 666 | 5.01 | 684 | 1.34 | – | – | – | – | – | – | – | essentially non-toxic | essentially non-toxic | IC50 ([3]; WI-38, WI38 cells, 24 h under dark, MTT): > 10 µM; IC50 (A549 cell line [4]; light or radiation study, A549, 1 h incubation, 630 nm LED light 30 s, 3.2 J/cm^2, 24 h, MTT): 0.34 µM; IC50 (HT29 cell line [5]; HT29, 1 h incubation, 630 nm LED light 30 s, 3.2 J/cm^2, 24 h, MTT): 0.039 µM; IC50 (MCF7 cell line [6]; light or radiation study, MCF7, 1 h incubation, 630 nm LED light 30 s, 3.2 J/cm^2, 24 h, MTT): 0.37 µM; IC50 (A549 cell line [7]; A549, 24 h under dark, MTT): 3.1 µM; IC50 (HT29 cell line [8]; HT-29, HT29, 24 h under dark, MTT): 2.1 µM; IC50 (MCF7 cell line [9]; MCF7, 24 h under dark, MTT): 1.9 µM; photocytotoxicity vs light dosage (MDA-MB-231 cells): light dosage dependent photocytotoxicity; photocytotoxicity vs light dosage (S. aureus [12]; 0.5 uM drug): light dosage dependent; eradication (S. aureus [12]; 0.5 uM, 30 J/cm^2): about 99.9999%; log 10-reduction (S. aureus [12]; 0.5 uM, 30 J/cm^2): ~6 log 10-reduction; photocytotoxicity vs light dosage (E. coli [13]; 6 uM drug): light dosage dependent; eradication (E. coli [13]; 6 uM, 50 J/cm^2): about 99.999%; log 10-reduction (E. coli [13]; 6 uM, 50 J/cm^2): ~5 log 10-reduction
CCN(CC)c1ccc2nc3c(cc(NC)c4nc(C)ccc43)[s+]c2c1 [Compound 18, 9-(diethylamino)-3-methyl-5-(methylamino)pyrido[3,2-a]phenothiazin-7-ium chloride] | 649 | 4.70 | 683 | 1.31 | 5 | – | – | – | – | – | – | – | – | –
CCN(CC)c1ccc2nc3c(cc(NCCCN)c4nc(C)ccc43)[s+]c2c1 [Compound 21, 5-(3-aminopropylamino)-9-(diethylamino)-3-methylpyrido[3,2-a]phenothiazin-7-ium chloride] | 668 | 4.82 | 686 | 0.64 | > 10 | – | – | – | – | – | – | – | – | –
CCCCCNc1cc2[s+]c3cc(N(CC)CC)ccc3nc2c2ccc(C)nc12 [Compound 15, 9-(diethylamino)-3-methyl-5-(pentylamino)pyrido[3,2-a]phenothiazin-7-ium chloride] | 651 | 4.91 | 684 | 1.4 | > 10 | – | – | – | – | – | – | – | – | –
CCN(CC)c1ccc2nc3c(cc(NCCCNC)c4nc(C)ccc43)[s+]c2c1 [Compound 22, 9-(diethylamino)-3-methyl-5-(3-(methylamino)propylamino) pyrido[3,2-a]phenothiazin-7-ium chloride] | 658 | 4.81 | 686 | 0.65 | > 10 | 11.9 | 0.51 | 3.1 | 19.8 | 9.5 | 13.2 | – | – | –
CCCCCN(CCCCC)c1cc2[s+]c3cc(N(CC)CC)ccc3nc2c2ccc(C)nc12 [Compound 20, 9-(diethylamino)-5-(dipentylamino)-3-methylpyrido[3,2-a]phenothiazin-7-ium chloride] | 676 | 4.89 | 700 | 1.48 | > 10 | – | – | – | – | – | – | – | – | –
CCCCN(CCCC)c1ccc2nc3c(cc(NCCC)c4nc(C)ccc43)[s+]c2c1 [Compound 24, 9-(dibutylamino)-3-methyl-5-(propylamino)pyrido[3,2-a]phenothiazin-7-ium chloride] | 654 | 4.86 | 688 | 3.4 | > 10 | 0.1 | 0.074 | 0.077 | 0.85 | 0.84 | 0.85 | essentially non-toxic | essentially non-toxic | –
CCCCCCCCCCNc1cc2[s+]c3cc(N(CC)CC)ccc3nc2c2ccc(C)nc12 [Compound 17, 5-(decylamino)-9-(diethylamino)-3-methylpyrido[3,2-a]phenothiazin-7-ium chloride] | 651 | 4.89 | 684 | 2.49 | 7 | – | – | – | – | – | – | – | – | –
CCCN(CCC)c1cc2[s+]c3cc(N(CC)CC)ccc3nc2c2ccc(C)nc12 [Compound 19, 9-(diethylamino)-5-(dipropylamino)-3-methylpyrido[3,2-a]phenothiazin-7-ium chloride] | 675 | 4.67 | 684 | 1.42 | 9.4 | – | – | – | – | – | – | – | – | –
CCCCCCCNc1cc2[s+]c3cc(N(CC)CC)ccc3nc2c2ccc(C)nc12 [Compound 16, 9-(diethylamino)-5-(heptylamino)-3-methylpyrido[3,2-a]phenothiazin-7-ium chloride] | 651 | 4.89 | 684 | 1.44 | > 10 | – | – | – | – | – | – | – | – | –
